Literature values as cited in patent US20070092575A1, “Compositions for administering RNAIII-inhibiting peptides” (priority 2005, published 2007).
Like-named read-outs stand apart in the source and are kept apart here. Ends that are not written are not given here.

Columns and labels:
[1] = tested on: S. aureus strain Smith diffuse; conditions: Cellulitis/sepsis, mouse, +RIP
S. aureus MS = conditions: Osteomyelitis, rabbit, strain MS, +RIP
S. aureus LS-1 [2] = conditions: Sepsis, mouse, strain LS-1, +RIP
[3] = tested on: MRSA, MRSE, VISA, VISE, GISA, GISE, MSSA, MSSE; conditions: Graft injection, rat, +RIP
S. aureus 8325-4 = conditions: Keratitis, rabbit, strain 8325-4, +RIP
[4] = tested on: S. aureus Newbould 305, AE-1; conditions: Mastitis, cow, strain Newbould/AE-1, +RIP
S. aureus LS-1 [5] = conditions: Arthritis, mouse, strain LS-1, +RIP

Q: What does the source list for “YSPWTNF(-NH2) (YSPWTNF-NH2) [RIP, amide form of a synthetic RIP analogue]”?
A: % animals disease free [1]: Up to 100%; % animals disease free (S. aureus MS): 58%; % animals disease free (S. aureus LS-1 [2]): 44%; % animals disease free [3]: Up to 100%; % animals disease free (S. aureus 8325-4): 40%; % animals disease free [4]: 70-100%; % animals disease free (S. aureus LS-1 [5]): 60%
